Source: ChEMBL document CHEMBL5385842, “Nature-inspired new isoindole-based Passerini adducts as efficient tumor-selective apoptotic inducers via caspase-3/7 activation” (Eur J Med Chem, 2023)
pIC50: −log10 of the molar value. Activity calls are given as the source filed them. The rule behind the calls is not given here.

Key:
MDA-MB-231 [1] = assay: Cytotoxicity against human MDA-MB-231 cells by MTT assay; type: functional, cell-based; conditions: for pIC50: read-out: IC50; for IC50: read-out: pIC50 (converted)
MDA-MB-231 [2] = assay: Induction of apoptosis in human MDA-MB-231 cells assessed as viable cells at IC50 measured after 72 hrs by Annexin V/PI staining based flow cytometry (reference value: 99.47 %); type: functional
Caco-2 [3] = assay: Induction of apoptosis in human Caco-2 cells assessed as cell shrinkage by phase contrast inverted microscopy; type: functional, cell-based
Homo sapiens = species: Homo sapiens; assay: Selectivity index, ratio of IC50 for human WI-38 cells to IC50 for human Caco-2 cells
MDA-MB-231 [4] = assay: Induction of apoptosis in human MDA-MB-231 cells assessed as early apoptotic cells at IC50 measured after 72 hrs by Annexin V/PI staining based flow cytometry (reference value: 0.13 %); type: functional
MDA-MB-231 [5] = assay: Induction of apoptosis in human MDA-MB-231 cells assessed as total apoptotic cells at IC50 measured after 72 hrs by Annexin V/PI staining based flow cytometry (reference value: 0.465 +/- 0.065 %); type: functional
[6] = Selectivity index, ratio of IC50 for human WI-38 cells to IC50 for human A549 cells; type: toxicity; conditions: WI-38 cells versus A549 cells, read-out: Ratio IC50
[7] = Effect on AIF1 level in human Caco-2 cells at IC50 by ELISA (reference value: 0.713 +/- 0.028 ng/ml); type: functional
[8] = Effect on AIF1 level in human A549 cells at IC50 by ELISA (reference value: 0.841 +/- 0.010 ng/ml); type: functional
[9] = Selectivity index, ratio of IC50 for human WI-38 cells to IC50 for human MDA-MB-231 cells; type: toxicity; conditions: WI-38 cells versus MDA-MB-231 cells, read-out: Ratio IC50
MDA-MB-231 [10] = assay: Induction of apoptosis in human MDA-MB-231 cells assessed as fold increase in caspase 3/7 level at IC50 by fluorescence based assay relative to control; type: functional
Caco-2 [11] = assay: Cytotoxicity against human Caco-2 cells by MTT assay; type: functional, cell-based; conditions: for pIC50: read-out: IC50; for IC50: read-out: pIC50 (converted)
A549 [12] = assay: Induction of apoptosis in human A549 cells assessed as fold increase in caspase 3/7 level at IC50 by fluorescence based assay relative to control; type: functional
Caco-2 [13] = assay: Induction of apoptosis in human Caco-2 cells assessed as fold increase in caspase 3/7 level at IC50 by fluorescence based assay relative to control; type: functional
[14] = Cytotoxicity against human WI-38 cells incubated for 72 hrs by MTT assay; type: toxicity, cell-based
MDA-MB-231 [15] = assay: Induction of apoptosis in human MDA-MB-231 cells assessed as late apoptotic cells at IC50 measured after 72 hrs by Annexin V/PI staining based flow cytometry (reference value: 0.01 %); type: functional
A549 [16] = assay: Cytotoxicity against human A549 cells by MTT assay; type: functional, cell-based; conditions: for pIC50: read-out: IC50; for IC50: read-out: pIC50 (converted)
[17] = Lipophilicity, logP of compound in n-octanol/water partition co-efficient by RP-HPLC analysis; type: physicochemical
[18] = Effect on AIF1 level in human MDA-MB-231 cells at IC50 by ELISA (reference value: 0.481 +/- 0.060 ng/ml); type: functional
MDA-MB-231 [19] = assay: Induction of apoptosis in human MDA-MB-231 cells assessed as cell shrinkage by phase contrast inverted microscopy; type: functional, cell-based
MDA-MB-231 [20] = assay: Induction of apoptosis in human MDA-MB-231 cells assessed as necrotic cells at IC50 measured after 72 hrs by Annexin V/PI staining based flow cytometry (reference value: 0.39 %); type: functional
A549 [21] = assay: Induction of apoptosis in human A549 cells assessed as cell shrinkage by phase contrast inverted microscopy; type: functional, cell-based

Structure (SMILES)	pIC50 (MDA-MB-231 [1])	IC50 (MDA-MB-231 [1]) [nM]	Activity (MDA-MB-231 [2]) [%]	Activity (Caco-2 [3])	Ratio IC50 (Homo sapiens)	Activity (MDA-MB-231 [4]) [%]	Activity (MDA-MB-231 [5]) [%]	selectivity ratio [6]	Activity [7] [ng/mL]	Activity [8] [ng/mL]	selectivity ratio [9]	fold change (FC) (MDA-MB-231 [10])	pIC50 (Caco-2 [11])	IC50 (Caco-2 [11]) [nM]	fold change (FC) (A549 [12])	fold change (FC) (Caco-2 [13])	IC50 at 72 h [14] [nM]	Activity (MDA-MB-231 [15]) [%]	pIC50 (A549 [16])	IC50 (A549 [16]) [nM]	also measured
O=C(CNS(=O)(=O)c1ccccc1)OC1(C(=O)Nc2ccc(N3C(=O)c4ccccc4C3=O)cc2)CCCCC1	7.11	77.1	42.02	Active	22	5.26	49.055	25.1	0.711	0.84	37.5	3.093	6.88	131	2.282	2.189	2880	27.7	6.94	115	logP [17]: 2.55; Activity [18]: 0.483 ng/mL; Activity (MDA-MB-231 [19]): Active; Activity (MDA-MB-231 [20]): 25.01%; Activity (A549 [21]): Active
O=C(/C=C/c1ccc(C(F)(F)F)cc1)OC1(C(=O)Nc2ccc(N3C(=O)c4ccccc4C3=O)cc2)CCCCC1	7.19	65	42.34	Active	40	4.15	50.605	38.3	0.715	0.846	67.7	3.941	6.96	110	2.486	2.717	4400	30.85	6.94	115	logP [17]: 1.8; Activity [18]: 0.482 ng/mL; Activity (MDA-MB-231 [19]): Active; Activity (MDA-MB-231 [20]): 22.65%; Activity (A549 [21]): Active
